Type in all cases: biochemical
The target in test [1] is PIM-1 kinase (Homo sapiens, UniProt P11309). The test can be described thus: HTRF KinEASE kinase assay, PIM-1 inhibitory activity. From the text: Inhibitory activities against PIM-1, TRKA, TRKB, FLT3, PKCδ, PKCε, PKCη, PAK4, PLK1, ROCK2, and IKKβ kinases were all determined using an HTRF®KinEASE™ kinase assay kit based on a time-resolved fluorescence technology. 7-carbonylstaurosporine (7OSTA) and TP-3654 were used as positive controls, and 3 duplicate wells were set in parallel. Specific operation steps are as follows. • (1) A kinase buffer was formulated and then used to formulate compounds to be tested, a positive drug, a substrate, kinases, and adenosine triphosphate (ATP). • (2) 2 μL of the substrate, 2 μL of the kinases (the kinases were not added in a negative control group), 4 μL of the compounds to be tested or the positive drug (4 μL of a buffer was added in a positive control group, and 6 μL of a buffer was added in the negative control group), and 2 μL of the ATP were sequentially added into each well of a 384-well microplate, and the microplate was sealed with a membrane and then centrifuged for uniform mixing. • (3) According to different types of the kinases, incubation was performed in an incubator at 37° C. for a specific time. • (4) A detection solution was formulated using XL-665, an antibody, and a detection buffer, 10 µL of the detection solution was added into each well, the microplate was sealed with a membrane and then centrifuged for uniform mixing, and standing was performed at room temperature for 1 hour. • (5) Fluorescence value intensities F1 and F2 at wavelengths of 620 nm and 665 nm were measured using a multifunctional microplate tester, respectively. A signal ratio was calculated as F2/F1×10000, and then an IC50 value was calculated using Graphpad Prism 8 software.
Chain of PIM-1 kinase (P11309 whole entry): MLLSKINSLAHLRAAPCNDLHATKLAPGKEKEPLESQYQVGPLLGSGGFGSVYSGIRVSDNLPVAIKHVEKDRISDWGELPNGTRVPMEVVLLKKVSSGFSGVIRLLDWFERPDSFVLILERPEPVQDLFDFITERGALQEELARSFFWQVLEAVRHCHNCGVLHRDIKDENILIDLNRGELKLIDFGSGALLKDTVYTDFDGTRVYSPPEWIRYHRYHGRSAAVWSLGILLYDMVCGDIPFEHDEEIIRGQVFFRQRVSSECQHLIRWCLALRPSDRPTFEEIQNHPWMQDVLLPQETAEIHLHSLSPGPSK
On the technique in general: TR-FRET usually uses a lanthanide donor and a delayed reading to cut background.

The target in test [2] is TRKA (Homo sapiens, UniProt P04629). The test can be described thus: HTRF KinEASE kinase assay, TRKA (kinase selectivity). To be noted: HTRF KinEASE kit, 3 duplicate wells; read-out: TRKA IC50. As to the method: (§1) Inhibitory activities against PIM-1, TRKA, TRKB, FLT3, PKCδ, PKCε, PKCη, PAK4, PLK1, ROCK2, and IKKβ kinases were all determined using an HTRF®KinEASE™ kinase assay kit based on a time-resolved fluorescence technology. 7-carbonylstaurosporine (7OSTA) and TP-3654 were used as positive controls, and 3 duplicate wells were set in parallel. […] A signal ratio was calculated as F2/F1×10000, and then an IC50 value was calculated using Graphpad Prism 8 software.
Chain of TRKA (P04629 33-796, species assumed): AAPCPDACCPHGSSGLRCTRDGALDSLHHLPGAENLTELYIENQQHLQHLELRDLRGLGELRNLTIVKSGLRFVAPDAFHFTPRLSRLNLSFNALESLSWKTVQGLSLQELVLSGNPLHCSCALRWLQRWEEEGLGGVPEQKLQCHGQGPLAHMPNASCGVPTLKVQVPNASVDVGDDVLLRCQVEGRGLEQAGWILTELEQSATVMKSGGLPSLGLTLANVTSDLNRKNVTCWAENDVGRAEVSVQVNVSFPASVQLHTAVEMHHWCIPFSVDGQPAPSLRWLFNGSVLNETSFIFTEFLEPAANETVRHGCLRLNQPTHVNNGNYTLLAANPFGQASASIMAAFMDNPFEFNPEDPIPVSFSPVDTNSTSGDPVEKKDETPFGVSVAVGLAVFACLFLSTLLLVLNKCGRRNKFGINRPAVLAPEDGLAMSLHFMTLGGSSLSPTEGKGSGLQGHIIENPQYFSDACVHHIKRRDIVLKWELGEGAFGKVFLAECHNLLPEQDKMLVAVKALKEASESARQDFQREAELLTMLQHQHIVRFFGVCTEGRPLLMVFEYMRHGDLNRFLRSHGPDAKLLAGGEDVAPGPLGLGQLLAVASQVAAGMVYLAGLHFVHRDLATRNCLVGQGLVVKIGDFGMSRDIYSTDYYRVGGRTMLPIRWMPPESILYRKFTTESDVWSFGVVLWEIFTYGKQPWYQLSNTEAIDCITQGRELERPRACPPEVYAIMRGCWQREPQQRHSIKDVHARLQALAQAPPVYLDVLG

Test [3] addresses T1, FLT3 (Homo sapiens, UniProt P36888).
T1 sequence (P36888 27-993): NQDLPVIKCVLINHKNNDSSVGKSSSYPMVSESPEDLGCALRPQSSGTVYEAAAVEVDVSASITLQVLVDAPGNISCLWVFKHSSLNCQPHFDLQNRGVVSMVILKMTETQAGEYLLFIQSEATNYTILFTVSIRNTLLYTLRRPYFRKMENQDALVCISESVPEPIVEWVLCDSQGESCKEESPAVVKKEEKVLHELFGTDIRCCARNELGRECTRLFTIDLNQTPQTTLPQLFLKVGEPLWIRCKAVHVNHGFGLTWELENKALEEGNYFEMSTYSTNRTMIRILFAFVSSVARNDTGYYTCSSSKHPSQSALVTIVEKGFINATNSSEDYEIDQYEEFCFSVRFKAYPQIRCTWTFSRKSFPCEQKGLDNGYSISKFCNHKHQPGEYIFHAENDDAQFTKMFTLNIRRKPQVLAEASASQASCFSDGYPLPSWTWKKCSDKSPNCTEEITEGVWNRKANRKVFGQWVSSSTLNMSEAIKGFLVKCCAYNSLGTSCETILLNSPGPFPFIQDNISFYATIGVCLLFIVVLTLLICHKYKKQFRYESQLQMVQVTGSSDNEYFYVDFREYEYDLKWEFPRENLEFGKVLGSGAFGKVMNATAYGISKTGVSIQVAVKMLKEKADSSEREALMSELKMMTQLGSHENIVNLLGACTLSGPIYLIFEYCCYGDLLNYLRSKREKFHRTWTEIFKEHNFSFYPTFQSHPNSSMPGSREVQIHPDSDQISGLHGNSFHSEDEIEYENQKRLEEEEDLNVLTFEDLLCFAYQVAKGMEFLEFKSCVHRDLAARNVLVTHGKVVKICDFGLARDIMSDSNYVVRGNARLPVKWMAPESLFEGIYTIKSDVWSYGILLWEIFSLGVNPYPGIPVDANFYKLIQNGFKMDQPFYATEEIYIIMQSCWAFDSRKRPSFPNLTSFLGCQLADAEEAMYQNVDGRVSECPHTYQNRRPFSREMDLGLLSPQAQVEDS
Kind of test: HTRF KinEASE kinase assay, FLT3 (kinase selectivity). To be noted: HTRF KinEASE kit, 3 duplicate wells; read-out: FLT3 IC50. As to the method: as §1

For test [4], the target named is PKCη (Homo sapiens, UniProt P24723). The test can be described thus: HTRF KinEASE kinase assay, PKCη (kinase selectivity). As to conditions: HTRF KinEASE kit, 3 duplicate wells; read-out: PKCη IC50. As to the method: as §1
Chain of PKCη (P24723 whole entry): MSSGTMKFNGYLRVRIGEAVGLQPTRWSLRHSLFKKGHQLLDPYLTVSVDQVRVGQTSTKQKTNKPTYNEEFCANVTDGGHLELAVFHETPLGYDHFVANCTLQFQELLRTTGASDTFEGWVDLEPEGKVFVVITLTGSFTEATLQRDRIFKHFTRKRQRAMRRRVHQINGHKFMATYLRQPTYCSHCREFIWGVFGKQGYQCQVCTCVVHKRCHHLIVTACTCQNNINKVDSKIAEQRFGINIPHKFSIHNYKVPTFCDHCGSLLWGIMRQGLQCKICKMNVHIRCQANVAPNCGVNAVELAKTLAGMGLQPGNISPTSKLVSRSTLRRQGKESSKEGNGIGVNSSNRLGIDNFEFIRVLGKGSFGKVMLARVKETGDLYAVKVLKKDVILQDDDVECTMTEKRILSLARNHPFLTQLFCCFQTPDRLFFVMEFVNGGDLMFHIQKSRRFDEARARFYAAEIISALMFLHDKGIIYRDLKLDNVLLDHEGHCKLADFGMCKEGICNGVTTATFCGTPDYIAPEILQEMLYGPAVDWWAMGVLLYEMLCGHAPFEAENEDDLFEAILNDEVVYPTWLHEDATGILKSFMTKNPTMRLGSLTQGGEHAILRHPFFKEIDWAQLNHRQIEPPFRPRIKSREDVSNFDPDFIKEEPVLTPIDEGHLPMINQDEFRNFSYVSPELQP
The target of test [5] is PAK4 (Homo sapiens, UniProt O96013). The test can be described thus: HTRF KinEASE kinase assay, PAK4 (kinase selectivity). As to conditions: HTRF KinEASE kit, 3 duplicate wells; read-out: PAK4 IC50. On the procedure: as §1
Chain of PAK4 (O96013 whole entry, species assumed): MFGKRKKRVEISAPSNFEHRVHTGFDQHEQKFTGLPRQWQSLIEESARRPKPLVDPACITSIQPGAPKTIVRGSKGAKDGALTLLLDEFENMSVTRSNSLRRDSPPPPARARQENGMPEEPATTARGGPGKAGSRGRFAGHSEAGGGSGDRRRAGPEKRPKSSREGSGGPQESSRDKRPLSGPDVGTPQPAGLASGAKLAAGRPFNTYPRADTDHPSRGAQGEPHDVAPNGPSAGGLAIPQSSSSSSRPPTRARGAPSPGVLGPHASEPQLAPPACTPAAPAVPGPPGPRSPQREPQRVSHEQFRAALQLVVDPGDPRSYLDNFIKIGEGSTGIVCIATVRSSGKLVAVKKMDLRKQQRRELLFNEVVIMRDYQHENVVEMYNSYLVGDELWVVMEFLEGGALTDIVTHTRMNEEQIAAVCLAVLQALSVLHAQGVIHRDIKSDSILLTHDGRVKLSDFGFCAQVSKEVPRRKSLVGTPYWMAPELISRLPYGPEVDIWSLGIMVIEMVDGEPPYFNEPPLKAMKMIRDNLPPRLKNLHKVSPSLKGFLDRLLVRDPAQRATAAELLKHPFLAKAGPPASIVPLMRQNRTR

Entries after “also recorded” stand apart in the source; their conditions may differ.

As a reminder, the IC50 is the concentration at which inhibition is half-maximal. Take `CO[C@@H]1[C@H](N(C)C(=O)CCC(=O)NO)C[C@H]2O[C@]1(C)n1c3ccccc3c3c4c(c5c6ccccc6n2c5c31)C(=O)NC4=O` [Compound 17]: the IC50 worked out at 5.9 nM in test [1] (HTRF KinEASE kit, 3 duplicate wells, read-out: PIM-1 kinase inhibitory activity (IC50)); 4 nM in test [2]; 5.3 nM in test [3]; 73.2 nM in test [4]; 240 nM in test [5]. Besides, the “selectivity for the PIM-1 kinase (in words)” value in test [1] (versus TRKA, TRKB, FLT3, PKCδ, PKCε, PKCη, PAK4, PLK1, ROCK2, IKKβ) was “excellent selective inhibitory effect on the PIM-1 kinase; also recorded: excellent selective inhibition ability against the PIM-1 kinase”.
